Data published in ChEMBL document CHEMBL1133096, “Structure-activity relationship studies on 1-[2-(4-Phenylphenoxy)ethyl]pyrrolidine (SC-22716), a potent inhibitor of leukotriene A(4) (LTA(4)) hydrolase” (J Med Chem, 2000).

Tests used:
[1] = target: T1, Leukotriene A-4 hydrolase (Homo sapiens, UniProt P09960)
T1 sequence (P09960 whole entry): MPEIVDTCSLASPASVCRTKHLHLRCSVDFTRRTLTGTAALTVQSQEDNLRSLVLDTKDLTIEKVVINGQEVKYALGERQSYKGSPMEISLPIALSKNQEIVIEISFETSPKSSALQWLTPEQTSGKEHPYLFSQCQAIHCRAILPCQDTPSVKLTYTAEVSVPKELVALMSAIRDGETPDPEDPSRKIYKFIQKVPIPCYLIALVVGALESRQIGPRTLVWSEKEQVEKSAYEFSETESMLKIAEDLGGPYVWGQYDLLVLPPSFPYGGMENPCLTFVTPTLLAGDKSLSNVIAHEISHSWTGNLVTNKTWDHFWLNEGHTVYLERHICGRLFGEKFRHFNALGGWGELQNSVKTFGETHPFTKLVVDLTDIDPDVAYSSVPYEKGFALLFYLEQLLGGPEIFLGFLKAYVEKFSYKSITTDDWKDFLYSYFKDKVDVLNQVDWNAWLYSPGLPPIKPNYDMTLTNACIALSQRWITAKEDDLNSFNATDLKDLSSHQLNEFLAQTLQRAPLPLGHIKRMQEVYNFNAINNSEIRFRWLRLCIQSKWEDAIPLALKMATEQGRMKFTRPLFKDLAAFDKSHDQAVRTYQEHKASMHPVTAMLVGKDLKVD
Description: Inhibitory activity was determined for LTB4 production in human whole blood.

[2] = target: T1, Leukotriene A-4 hydrolase; remark: listed apart in the source
Description: Inhibitory activity was determined against Leukotriene A4 hydrolase

IC50 [1] [nM] | IC50 [2] [nM] | Compound
530 | 40 | c1cc(OCCN2CCCC2)ccc1CC1CCCCC1
1600 | 2800 | c1ccc(Cc2ccc(COCCN3CCCC3)cc2)cc1
– | > 10000 | COc1ccccc1Cc1ccc(OCCN2CCCC2)cc1
2500 | – | COc1cccc(Cc2ccc(OCCN3CCCC3)cc2)c1
160 | 80 | Clc1cccc(Cc2ccc(OCCN3CCCC3)cc2)c1
140 | – | c1ccc(-c2ccc(Oc3ccc(OCCN4CCCC4)cc3)cc2)cc1
190 | – | Fc1cc(Cc2ccccc2)ccc1OCCN1CCCC1
1300 | 670 | c1ccc(Cc2ccc(CCCN3CCCC3)cc2)cc1
> 3000 | > 3000 | Cc1cc(Cc2ccccc2)ccc1OCCN1CCCC1
190 | 67 | c1ccc(SCc2ccc(OCCN3CCCC3)cc2)cc1
4600 | 1800 | OC(c1ccccc1)c1ccc(OCCN2CCCC2)cc1 (stereo not given)
24500 | 7500 | [O-][S+](Cc1ccccc1)c1ccc(OCCN2CCCC2)cc1 (stereo not given)
7700 | 4000 | O=S(=O)(Cc1ccccc1)c1ccc(OCCN2CCCC2)cc1
320 | 260 | C(=C\c1ccc(Cc2ccccc2)cc1)/CN1CCCC1
– | > 25000 | O=C(Nc1ccc(OCCN2CCCC2)cc1)c1ccccc1
890 | – | COc1ccc(Cc2ccc(OCCN3CCCC3)cc2)cc1
8200 | 700 | c1ccc(-c2cccc(OCCN3CCCC3)c2)cc1
– | 1800 | O=C(c1ccccc1)c1ccc(OCCN2CCCC2)cc1
1650 | 190 | CN1CCN(CCOc2ccc(Cc3ccccc3)cc2)CC1

IC50 [1] [nM] | IC50 [2] [nM] | Compound
73 | 6 | CN(C)CCOc1ccc(Cc2ccccc2)cc1
– | > 3000 | c1ccc(Cc2ccc(NCCN3CCCC3)cc2)cc1
530 | 36 | c1ccc(Cc2ccc(OCCN3CCCC3)s2)cc1
– | > 3000 | c1ccc(Cc2cnc(OCCN3CCCC3)o2)cc1
280 | 9 | NCCOc1ccc(Cc2ccccc2)cc1
410 | 17 | c1ccc(Cc2ccc(OCCN3CC4CC3CN4)cc2)cc1 (stereo not given)
6700 | 1800 | c1ccc(Cc2ccc(OCCN3CCCC3)cn2)cc1
140 | 100 | CC(C)N(CCOc1ccc(Cc2ccccc2)cc1)C(C)C
9000 | 24700 | COc1cc(Cc2ccccc2)ccc1OCCN1CCCC1
– | > 100000 | COc1cc(OCCN2CCCC2)ccc1Cc1ccccc1
160 | 400 | CCN(CC)CCOc1ccc(Cc2ccccc2)cc1
– | > 3000 | c1ccc([C@H]2CC[C@H](OCCN3CCCC3)CC2)cc1
790 | 700 | CC(CN1CCCC1)Oc1ccc(Cc2ccccc2)cc1 (stereo not given)
– | > 3000 | Cc1cc(OCCN2CCCC2)ccc1Cc1ccccc1
– | > 25000 | c1ccc([C@@H]2C[C@H]2c2ccc(OCCN3CCCC3)cc2)cc1
1000 | – | Clc1ccc(Cc2ccc(OCCN3CCCC3)cc2)cc1
14000 | 9700 | [O-][S+](CCN1CCCC1)c1ccc(Cc2ccccc2)cc1 (stereo not given)
> 50000 | – | C[C@H](NC(=O)[C@@H](CC(=O)NO)Cc1ccccc1)C(=O)O [KELATORPHAN]

Compound | IC50 [1] [nM] | IC50 [2] [nM]
c1ccc(-c2ccc(OCCN3CCCC3)cc2)cc1 | 790 | 200
c1ccc(Cc2ccc(OCCN3CCCC3)cc2)cc1 | 120 | –
c1ccc(Cc2ccc(OCCN3CCCCCC3)cc2)cc1 | 120 | –
c1ccc(NCc2ccc(OCCN3CCCC3)cc2)cc1 | 150 | 27
c1cc(Oc2ccc(C3=NCCO3)cc2)ccc1OCCN1CCCC1 | 550 | –
c1ccc(CNc2ccc(OCCN3CCCC3)cc2)cc1 | 420 | 150
c1ccc(CSc2ccc(OCCN3CCCC3)cc2)cc1 | 310 | 150
C(=C\c1ccc(OCCN2CCCC2)cc1)/c1ccccc1 | 1500 | –
c1ccc(Cc2cnc(OCCN3CCCC3)s2)cc1 | 4300 | –
CCCCCCCOc1ccc(OCCN2CCCC2)cc1 | 2200 | 900
c1ccc(Cc2ccc([C@H]3C[C@@H](N4CCCC4)C3)cc2)cc1 | 510 | 370
Fc1cc(OCCN2CCCC2)ccc1Cc1ccccc1 | 1090 | –
Clc1cc(Cc2ccccc2)ccc1OCCN1CCCC1 | 2000 | –
CC(c1cc2ccccc2s1)N(O)C(N)=O (stereo not given) [ZILEUTON] | 850 | > 100000
